Results reported in patent US20160051704A1, “MOLECULAR IMAGING PROBES FOR LUNG CANCER INTRAOPERATIVE GUIDANCE” (H. Lee Moffitt Cancer Center and Research Institute, Inc., priority 2013, published 2016).

Tests used:
[1] = system: HCT-116/δOR (δOR+) tumor relative to HCT-116 (δOR−) tumor; assay type: in vivo, mice
Experimental: (§1) The inventors evaluated a synthetic peptide δ-opioid receptor (δOR) antagonist Dmt-Tic (FIG. 8) conjugated to two different fluorescent dyes, Cy5 and IR800CW, as further discussed below. The pharmacokinetics (PK) of Dmt-Tic-Cy5 was evaluated in a subcutaneous xenograft model using HCT-116 cells (δOR−) and HCT-116 cells that were engineered to overexpress the δOR (δOR+). Tumor uptake of Dmt-Tic-Cy5 was also studied by intravital fluorescence microscopy using a dorsal skin-fold window chamber tumor xenograft model.
For PK experiments, mice were injected with 4.5 nmol/kg Dmt-Tic-Cy5 i.v. and images acquired at various time points from 0-168 h ([…]). Graphs 9B and 9C depict the mean fluorescent signal obtained from the δOR− tumors and δOR+ tumors over a time course of 0-168 h. Graph […] depicts the mean fold of enhancement (δOR+ tumor signal/δOR− tumor signal) over time. The tumor signals were quantified, averaged (n≧3 for each time point), and plotted over time. The graphs 9B and 9C show maximum probe uptake in the δOR+ tumor at 3 h. FIG. 9D depicts the maximum signal fold of enhancement (27±9 s.d.) at 18 h in δOR+ relative to δOR− tumors.
Mice then were tail vein injected with 10 μg of ligand 1 and images were acquired at different times post-injection using a VersArray 1300B cooled CCD camera, a filtered fiberoptic light source and a tunable emission filter (CRI, Inc.). After 15 min post-injection, the fluorescence intensity maps indicated systemic presence of the compound with high intensity throughout the animal (not shown). […] Histograms were generated for each ROI, and mean fluorescence intensities were determined for each time point. […]
Initial experiments were performed using the HCT-116 parental cell line and HCT-116/δOR engineered cells in a bilateral flank subcutaneous xenograft model in mice. […] Mice were injected intravenously with the designated concentrations of Dmt-Tic-IR800 and fluorescence imaging was performed at various time points post-injection using the IVIS200 imaging system. […]

[2] = In vivo pharmacokinetic (PK) and biodistribution (BD) profiles of fluorescent conjugates
[3] = system: DMS-53 luc+ (DOR+) orthotopic lung tumor; experiment: Orthotopic model of lung cancer, fluorescence molecular tomography; assay type: in vivo, mice; details: 40 nmol/kg i.v.; 0 to 48 hours
Experimental: In the orthotopic model of lung cancer, the mice undergo a minor surgical procedure during which DMS-53 luc+ (DOR+) cells are injected directly in the left lung. The growth of the tumors is monitored using bioluminescence imaging (FIG. 33A). The PK of DORL-800 was studied in this model by injecting mice intravenously with DORL-800 (40 nmol/kg) and acquiring images at various time points from 0 to 48 hours using fluorescence molecular tomography (FIG. 33B). […] FIG. 34A depicts the structure of DORL-800. FIGS. 34B and C depict in vivo fluorescence imaging of endogenously expressing subcutaneous lung cancer xenograft tumors following administration of DORL-800. The presence of tumor was confirmed by computed tomography (CT) and histology. DORL-800 was studied for use in intraoperative guidance. FIG. 35 is an image of a SCID Hairless Outbred mouse (SHO) four weeks after DMS-53 luc+ (DOR+) cells were injected directly into the lung.

[4] = system: DMS-53 (δOR+) tumor relative to H1299 (δOR−) tumor; experiment: In vivo fluorescence imaging, bilateral subcutaneous lung cancer xenografts with endogenous δOR expression; parameters: species or system mice; details: for tumor selectivity in fluorescence image: 40 nmol/kg, 24 h post-administration
Experimental: Mice were subcutaneously injected with H1299 (δOR−) (12 million cells of 100 uL per injection) and DMS-53 (δOR+) (20 million cells at 100 uL per injection) cells in the left and right flanks, respectively. Tumors were grown for 3 weeks after subcutaneous injection.
A dose determination assay was performed to find the optimal concentration of Dmt-Tic-IR800 for further experiments. A higher concentration of the imaging agent in these experiments was needed due to the lower receptor number. Based on previous work with fluorescent imaging agents targeting different receptors in endogenous expressing cell lines, the inventors selected concentrations of 40 nmol/kg, 80 nmol/kg, and 160 nmol/kg. (Huynh A S, Chung W J, Cho H I, Moberg V E, Celis E, Morse D L, Vagner J. Novel Toll-like Receptor 2 Ligands for Targeted Pancreatic Cancer Imaging and Immunotherapy. J Med Chem. 2012; 55(22):9751-62) Fluorescence imaging was performed using the IVIS200 imaging system at various time points following intravenous administration of Dmt-Tic-IR800. For the bilateral flank subcutaneous xenograft model using endogenously expressing cells the optimal dose was 40 nmol/kg.
Fluorescence imaging of mice bearing H1299 (δOR−) cells in the left flank and DMS-53 (δOR+) cells in the right flank was performed using the Optix MX3 imaging system and a 40 nmol/kg dose of Dmt-Tic-IR800. […] FIG. 28 is a series of in vivo fluorescence images taken at different time points of mice bearing the xenograft tumors of lung cancer cell lines with positive endogenous expression (DMS-53) and non-expression (H1299). […] FIG. 30 is a series of graphs depicting the quantified values from in vivo imaging of the lung cancer xenograft tumors using the Optix MX-3 imaging instrument by ART. FIG. 31 is a series of representative images depicting the ex vivo fluorescence imaging of excised positive tumor, negative tumor, liver, lungs, kidneys and GI tract following intravenous administration of the Dmt-Tic-IR800 agent. […]
For dose determination assays on the Xenogen IVIS-200, images were analyzed using Living Image Software (v3.2). […]

[5] = target: T1, delta opioid receptor (δOR) (Homo sapiens, UniProt P41143); experiment: Lanthanide time-resolved fluorescence (TRF) competitive binding assay on HCT-116/δOR whole cells against Eu-DTPA-DPLCE; details: HCT-116 cells engineered to express δOR; competed ligand Eu-labeled DPLCE; read-out: Ki (δOR binding affinity)
T1 construct: pcDNA-δOR15 vector containing a truncated δOR lacking the final 15 C-terminal amino acids; expressed in transfected cells
Text: The inventors have previously generated an engineered cell line that stably overexpresses the δO R based on the colorectal cancer cell line HCT-116. […] For the LTRF competition binding assays with Dmt-Tic-IR800, the inventors used the engineered HCT-116/δOR cell line since it has a high number of receptors on the cell surface.
To determine binding affinity the inventors used a lanthanide time-resolved fluorescence (LTRF) competitive binding assay as described previously.
For the competitive binding assays, HCT-116/δOR cells were plated in black wall/white bottom 96-well plates (Perkin Elmer, Cat. #6005060) at a density of 20,000 cells per well and were allowed to grow for 3 days.
On the day of the experiment, media were aspirated from all wells and then the cells were rinsed with phosphate buffered saline (PBS) (100 μL/well). […] Ligands were diluted in binding assay buffer (Modified Eagles medium [MEM] (Gibco, Cat. #61100-087), 1 mM 1,10-phenanthroline, 200 mg/L bacitracin, 0.5 mg/L leupeptin, 26 mM NaHCO3, 25 mM HEPES, 0.2% w/v BSA) and samples were tested in octuplicate.
Cells were incubated in the presence of ligands for 1 h at 37° C. and 5% CO2. Following the incubation, cells were washed three times with wash buffer (50 mM Tris-HCl, 0.2% w/v BSA, 30 mM NaCl) (200 μL/well).

[6] = literature statement; cited from earlier work
[7] = system: HCT-116/RFP (δOR negative) and HCT-116/δOR tumors; experiment: Intravital fluorescence microscopy, dorsal skin-fold window chamber tumor xenograft; assay type: in vivo, mice; details: 45 nmol/kg i.v.; HCT-116/RFP (δOR negative) tumor; post tail vein injection
Experimental: as §1
Mice containing dorsal skin-fold window chamber tumor xenografts were injected with 45 nmol/kg Dmt-Tic-Cy5 i.v. (FIG. 12) Images were acquired continuously for 15 minutes post-injection and at various time points after. […] Dmt-Tic-Cy5 is taken up and extravasates from the rat GFP vessels within seconds post tail vein injection (top). Dmt-Tic-Cy5 is cleared by 33 minutes post tail vein injection (bottom). Light gray represents the RFP signal from the tumor cells, medium gray represents the GFP signal from the rat microvessels, and dark gray is the Cy5 signal from the ligand. […] Shown are the Cy5 signal from the ligand in dark gray (left images) and overlays of the Cy5 signal and white light channels (right images) pre-injection and 25 minutes, 45 minutes, 60 minutes, 1 hour 25 minutes, and 24 hours post-injection.

δOR = target: T2, δOR (Mus musculus, UniProt P32300); experiment: Mouse-isolated vas deferens (MVD) assay against δ-agonist DPDPE; details: n=8, read-out: Ke (inhibitory potency)
T2 construct: from tissue; host or cells: mouse isolated vas deferens
Text: (Kramer, T. H.; Davis, P.; Hruby, V. J.; Burks, T. F.; Porreca, F. J. Pharmacol. Exp. Ther. 1993, 266, 577-584)

δ-opioid receptor = details: literature value; cited from earlier work

T1 sequence (P41143 1-357 limits assumed): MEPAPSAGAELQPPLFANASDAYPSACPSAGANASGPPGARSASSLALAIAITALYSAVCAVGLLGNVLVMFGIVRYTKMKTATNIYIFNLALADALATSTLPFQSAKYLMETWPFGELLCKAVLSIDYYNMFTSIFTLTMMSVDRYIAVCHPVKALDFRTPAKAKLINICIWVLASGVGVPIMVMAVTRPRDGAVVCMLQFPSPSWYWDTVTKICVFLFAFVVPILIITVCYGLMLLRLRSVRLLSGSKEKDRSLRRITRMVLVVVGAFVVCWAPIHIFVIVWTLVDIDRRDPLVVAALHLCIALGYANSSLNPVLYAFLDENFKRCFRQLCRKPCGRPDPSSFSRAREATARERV
T2 sequence (P32300 whole entry): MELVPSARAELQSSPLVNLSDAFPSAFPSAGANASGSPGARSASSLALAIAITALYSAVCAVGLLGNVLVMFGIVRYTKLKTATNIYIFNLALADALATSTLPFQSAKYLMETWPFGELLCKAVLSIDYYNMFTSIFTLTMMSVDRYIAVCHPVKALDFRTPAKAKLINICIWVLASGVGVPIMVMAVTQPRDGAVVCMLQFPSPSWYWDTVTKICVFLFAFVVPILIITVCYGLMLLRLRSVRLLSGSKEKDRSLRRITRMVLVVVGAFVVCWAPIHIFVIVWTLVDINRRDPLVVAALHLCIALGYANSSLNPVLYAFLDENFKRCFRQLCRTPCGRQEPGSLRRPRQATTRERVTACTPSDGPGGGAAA

Compound: Cc1cc(O)cc(C)c1C[C@H](N)C(=O)N1Cc2ccccc2C[C@H]1C(=O)N[C@@H](CCCCNC(=O)CCSC1CC(=O)N(CCNC(=O)CCCCC[N+]2=C(/C=C/C3=C(Oc4ccc(S(=O)(=O)O)cc4)C(=C/C=C4/N(CCCCS(=O)(=O)O)c5ccc(S(=O)(=O)O)cc5C4(C)C)/CCC3)C(C)(C)c3cc(S(=O)(=O)[O-])ccc32)C1=O)C(=O)O (stereo partly drawn) [Dmt-Tic-IR800]
- fold enhancement of the positive tumor (HCT-116/δOR) relative to the negative tumor (HCT-116) ([1]; 10 nmol/kg i.v., 24 hours post-injection, Optix MX3, n=4): ~7 fold
- tumor selectivity in fluorescence image ([1]; 10 nmol/kg, 24 h post-administration): selective for the δOR+ tumor
- blood-brain barrier passage [2]: does not cross the blood-brain barrier
- accumulation in orthotopic tumor [3]: accumulated specifically in the tumor
- fold enhancement of the positive tumor (DMS-53) relative to the negative tumor (H1299) ([4]; 40 nmol/kg i.v., 24 hours post-injection, Optix MX3, n=4): ~4 fold
- tumor selectivity in fluorescence image [4]: selective for the δOR+ tumor
- tumor selectivity in fluorescence image ([4]; listed as DORL-800): selective for the DOR+ tumor
- Ki [5]: 1.43 ± 0.24 nM

Compound: CC1(C)C(/C=C/C2=C(Oc3ccc(S(=O)(=O)O)cc3)C(=C/C=C3/N(CCCCS(=O)(=O)O)c4ccc(S(=O)(=O)[O-])cc4C3(C)C)/CCC2)=[N+](CCCCCC(=O)O)c2ccc(S(=O)(=O)O)cc21 [Licor IR800CW]
- toxicity [6]: non-toxic

Compound: CC[N+]1=C(C=CC=CC=C2N(CCCCCC(=O)NCCN3C(=O)CC(SCCC(=O)NCCCC[C@H](NC(=O)[C@@H]4Cc5ccccc5CN4C(=O)[C@@H](N)Cc4c(C)cc(O)cc4C)C(=O)O)C3=O)c3ccc(S(=O)(=O)O)cc3C2(C)C)C(C)(C)c2cc(S(=O)(=O)[O-])ccc21 (stereo partly drawn) [ligand 1, Dmt-Tic-Lys(Cy5)-OH]
- time of maximum probe uptake in the δOR+ tumor ([1]; 4.5 nmol/kg i.v., time course 0-168 h): 3 h
- time by which probe is cleared from δOR negative tumor [7]: ≤ 33 min
- Kb (δOR): 0.037 nM
- blood-brain barrier passage [2]: does not cross the blood-brain barrier
- Ki [5]: 3 nM

Compound: Dmt-Tic-Lys(Ac)-OH
- Ki (δ-opioid receptor): 0.047 nM
